Test results reported in ChEMBL document CHEMBL5154818, “Development of oxoisoaporphine derivatives with topoisomerase I inhibition and reversal of multidrug resistance in breast cancer MCF-7/ADR cells” (Eur J Med Chem, 2022).
Active and inactive are the calls of the source. The rule behind the calls is not given here.

Experiments:
[1] = test system: HepG2; test: Antiproliferative activity against human HepG2 cells after 48 hrs by MTT assay; type: functional, cell-based; conditions: HepG2, 48 h
[2] = test system: MCF7; test: Antiproliferative activity against human MCF7 cells after 48 hrs by MTT assay; type: functional, cell-based; conditions: MCF7, 48 h
[3] = test system: L02; test: Antiproliferative activity against human L02 cells after 48 hrs by MTT assay; type: functional, cell-based; conditions: L02, 48 h
[4] = test system: Calf thymus DNA; test: Binding affinity to calf thymus DNA assessed as red shift in absorption spectra at 20 uM by UV-vis absorption spectroscopy; type: nucleic-acid assay; conditions: Bos taurus
[5] = test system: Calf thymus DNA; test: Binding affinity to calf thymus DNA assessed as hypochromicity at 20 uM measured by UV-vis absorption spectroscopy; type: nucleic-acid assay; conditions: Bos taurus
[6] = target: T1, DNA topoisomerase 1 (Homo sapiens) (UniProt P11387); test: Inhibition of human DNA topoisomerase 1 assessed as reduction in pBR322 DNA relaxation at 50 to 100 uM measured by gel electrophoresis method; conditions: dose 50-100 µM
T1 sequence (whole entry): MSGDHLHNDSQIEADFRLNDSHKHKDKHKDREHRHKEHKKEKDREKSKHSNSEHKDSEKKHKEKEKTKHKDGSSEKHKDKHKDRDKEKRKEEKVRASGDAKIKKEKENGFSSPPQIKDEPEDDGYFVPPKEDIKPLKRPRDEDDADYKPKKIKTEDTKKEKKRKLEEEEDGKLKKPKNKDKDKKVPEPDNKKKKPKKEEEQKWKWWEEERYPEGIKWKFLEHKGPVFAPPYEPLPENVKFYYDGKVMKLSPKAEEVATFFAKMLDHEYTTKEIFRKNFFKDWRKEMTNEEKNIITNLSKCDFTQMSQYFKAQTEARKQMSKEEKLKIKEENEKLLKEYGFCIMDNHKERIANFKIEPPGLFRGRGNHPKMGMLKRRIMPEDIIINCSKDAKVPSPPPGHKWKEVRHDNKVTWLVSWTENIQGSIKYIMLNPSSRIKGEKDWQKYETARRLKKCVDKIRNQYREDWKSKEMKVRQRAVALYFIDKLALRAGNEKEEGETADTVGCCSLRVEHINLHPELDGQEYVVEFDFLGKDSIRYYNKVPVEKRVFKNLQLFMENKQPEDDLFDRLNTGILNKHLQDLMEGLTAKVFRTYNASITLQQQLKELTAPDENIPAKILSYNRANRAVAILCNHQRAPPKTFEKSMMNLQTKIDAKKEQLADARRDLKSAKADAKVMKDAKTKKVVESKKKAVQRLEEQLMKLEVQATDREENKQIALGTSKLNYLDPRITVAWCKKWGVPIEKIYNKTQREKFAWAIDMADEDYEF

[7] = test system: MCF7; test: Induction of cell cycle arrest in human MCF7 cells assessed accumulation of cells at G1 phase at 2 uM measured after 48 hrs by propidium iodide staining based flow cytometric analysis (reference value: 45.94%); type: functional
[8] = test system: MCF7; test: Induction of cell cycle arrest in human MCF7 cells assessed accumulation of cells at G2 phase at 2 uM measured after 48 hrs by propidium iodide staining based flow cytometric analysis (reference value: 37.81%); type: functional
[9] = test system: MCF7; test: Induction of cell cycle arrest in human MCF7 cells assessed accumulation of cells at S phase at 4 uM measured after 48 hrs by propidium iodide staining based flow cytometric analysis (reference value: 27.53%); type: functional
[10] = test system: MCF7; test: Induction of cell cycle arrest in human MCF7 cells assessed accumulation of cells at G2 phase at 4 uM measured after 48 hrs by propidium iodide staining based flow cytometric analysis (reference value: 37.81%); type: functional
[11] = test system: MCF7; test: Induction of cell cycle arrest in human MCF7 cells assessed accumulation of cells at S phase at 8 uM measured after 48 hrs by propidium iodide staining based flow cytometric analysis (reference value: 27.53%); type: functional
[12] = test system: MCF7; test: Induction of apoptosis in human MCF7 cells assessed as early apoptotic cells at 2 to 8 uM incubated for 48 hrs by Annexin V-FITC/propidium iodide staining based flow cytometry analysis; type: functional; conditions: dose 2-8 µM
[13] = test system: MCF7; test: Induction of apoptosis in human MCF7 cells assessed as late apoptotic cells at 2 to 8 uM incubated for 48 hrs by Annexin V-FITC/propidium iodide staining based flow cytometry analysis; type: functional; conditions: dose 2-8 µM
[14] = test system: MCF7; test: Induction of apoptosis in human MCF7 cells assessed as increase in cleaved caspase-3 expression 1.5 to 6 uM incubated for 24 hrs by Western blotting analysis; type: functional, cell-based; conditions: dose 1.5-6 µM
[15] = test system: MCF7; test: Induction of apoptosis in human MCF7 cells assessed as increase in cleaved PARP expression 1.5 to 6 uM incubated for 24 hrs by Western blotting analysis; type: functional, cell-based; conditions: dose 1.5-6 µM
[16] = test system: NCI/ADR-RES; test: Reversal of multidrug resistant activity in human MCF7/ADR cells after 48 hrs by MTT assay; type: functional, cell-based
[17] = species: Danio rerio; test: Induction of apoptosis in zebrafish embryo assessed as increase intracellular ROS level at 0.01 to 1 uM measured by DCFH-DA dye based flow cytometric analysis; type: functional, organism-based; conditions: dose 0.01-1 µM
[18] = test system: NCI/ADR-RES; test: Induction of apoptosis in human MCF7/ADR cells assessed as decrease in Bcl-2 expression at 5 to 20 uM measured after 24 hrs by Western blotting analysis; type: functional, cell-based; conditions: dose 5-20 µM
[19] = test system: NCI/ADR-RES; test: Induction of apoptosis in human MCF7/ADR cells assessed as increase in Bad expression at 5 to 20 uM measured after 24 hrs by Western blotting analysis; type: functional, cell-based; conditions: dose 5-20 µM
[20] = target: T2, ATP-dependent translocase ABCB1 (Homo sapiens, UniProt P08183); test: Inhibition of P-gp-mediated multidrug resistance in human MCF7/ADR cells at 10 to 20 uM assessed as adriamycin accumulation treated with adriamycin measured after 24 hrs by flow cytometry; type: cell-based; conditions: nci/adr-res, dose 10-20 µM
[21] = target: T2, ATP-dependent translocase ABCB1; test: Inhibition of P-gp-mediated multidrug resistance in human MCF7/ADR cells assessed as decrease in P-gp expression at 10 uM measured after 24 hrs by Western blot analysis; type: cell-based; conditions: NCI/ADR-RES
[22] = test system: MCF7; test: Antitumor activity against human MCF7 cells xenografted in Balb/c nude mouse assessed as tumor growth inhibition at 1 mg/kg, ip administered 3 times a week for 3 weeks; type: functional; conditions: MCF7, 504 h, read-out: TGI
[23] = test system: MCF7; test: Antitumor activity against human MCF7 cells xenografted in Balb/c nude mouse assessed as tumor growth inhibition at 10 mg/kg, ip administered 3 times a week for 3 weeks; type: functional; conditions: MCF7, 504 h, read-out: TGI
[24] = Toxicity in BALB/c nude mouse xenografted with human MCF7 cells assessed as lung tissue damage at 1 to 10 mg/kg, ip administered 3 times a week for 3 weeks; type: organism-based; conditions: in vivo, 504 h, dose 1-10 mg/kg
[25] = Toxicity in BALB/c nude mouse xenografted with human MCF7 cells assessed as spleen tissue damage at 1 to 10 mg/kg, ip administered 3 times a week for 3 weeks; type: organism-based; conditions: in vivo, 504 h, dose 1-10 mg/kg
[26] = Toxicity in BALB/c nude mouse xenografted with human MCF7 cells assessed as kidney tissue damage at 1 to 10 mg/kg, ip administered 3 times a week for 3 weeks; type: organism-based; conditions: in vivo, 504 h, dose 1-10 mg/kg
[27] = Toxicity in BALB/c nude mouse xenografted with human MCF7 cells assessed as liver tissue damage at 1 to 10 mg/kg, ip administered 3 times a week for 3 weeks; type: organism-based; conditions: in vivo, 504 h, dose 1-10 mg/kg
[28] = Toxicity in BALB/c nude mouse xenografted with human MCF7 cells assessed as increase in survival rate at 10 mg/kg, ip administered 3 times a week for 3 weeks; type: organism-based; conditions: in vivo, 504 h

T2 sequence (P08183 whole entry): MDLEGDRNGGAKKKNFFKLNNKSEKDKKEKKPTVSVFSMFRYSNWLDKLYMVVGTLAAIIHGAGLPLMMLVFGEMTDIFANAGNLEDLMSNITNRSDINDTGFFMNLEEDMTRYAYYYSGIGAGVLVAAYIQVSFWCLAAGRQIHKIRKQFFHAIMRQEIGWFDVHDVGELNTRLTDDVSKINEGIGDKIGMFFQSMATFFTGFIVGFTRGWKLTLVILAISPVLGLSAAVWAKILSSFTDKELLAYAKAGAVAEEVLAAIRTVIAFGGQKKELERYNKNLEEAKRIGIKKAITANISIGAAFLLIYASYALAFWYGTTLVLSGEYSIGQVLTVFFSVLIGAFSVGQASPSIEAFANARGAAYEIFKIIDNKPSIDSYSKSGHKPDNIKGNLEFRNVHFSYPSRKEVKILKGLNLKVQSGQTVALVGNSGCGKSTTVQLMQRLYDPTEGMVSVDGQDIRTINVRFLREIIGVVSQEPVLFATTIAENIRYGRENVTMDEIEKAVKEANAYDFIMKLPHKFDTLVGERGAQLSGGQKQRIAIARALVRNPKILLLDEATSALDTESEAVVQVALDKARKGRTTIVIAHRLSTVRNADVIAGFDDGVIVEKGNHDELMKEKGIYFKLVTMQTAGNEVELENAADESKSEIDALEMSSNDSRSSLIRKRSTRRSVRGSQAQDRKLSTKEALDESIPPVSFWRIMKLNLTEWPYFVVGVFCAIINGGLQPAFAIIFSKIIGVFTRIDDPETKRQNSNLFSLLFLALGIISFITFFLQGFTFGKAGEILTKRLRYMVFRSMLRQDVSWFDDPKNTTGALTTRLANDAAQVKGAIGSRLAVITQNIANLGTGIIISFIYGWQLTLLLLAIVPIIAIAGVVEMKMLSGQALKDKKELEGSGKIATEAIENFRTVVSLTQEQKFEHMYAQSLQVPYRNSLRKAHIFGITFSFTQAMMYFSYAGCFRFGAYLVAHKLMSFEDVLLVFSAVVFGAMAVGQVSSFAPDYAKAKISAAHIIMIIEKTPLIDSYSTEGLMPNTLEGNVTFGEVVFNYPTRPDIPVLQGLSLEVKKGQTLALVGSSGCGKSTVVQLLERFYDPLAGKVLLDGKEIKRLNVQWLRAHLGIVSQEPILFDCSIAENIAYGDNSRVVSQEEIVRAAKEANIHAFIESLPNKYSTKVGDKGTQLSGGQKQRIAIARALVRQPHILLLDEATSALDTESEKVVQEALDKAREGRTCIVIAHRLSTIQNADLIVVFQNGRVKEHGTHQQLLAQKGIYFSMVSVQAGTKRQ

**Q.** What does the source list for `CC1CCCCN1CCOc1ccc2c3c(nccc13)-c1ccccc1C2=O` (stereo not drawn)?
**A.** IC50 [1]: 4.88 µM; IC50 [2]: 1.32 µM; IC50 [3]: 36.5 µM; OD [4]: 2.2 nm; Activity [5]: 33.9%; inhibition [6]: Active; Activity [7]: 49.45%; Activity [8]: 33.28%; Activity [9]: 25.08%; Activity [10]: 32.26%; Activity [11]: 24.3%; Activity [12]: 5.4%; Activity [13]: 59.5%; Activity [14]: Active; Activity [15]: Active; IC50 [16]: 0.9 µM; Activity [17]: Active; Activity [18]: Active; Activity [19]: Active; inhibition (INH) [20]: Active; inhibition at 10 µM [21]: 14.9%; inhibition in vivo at 1 mg/kg [22]: 32.4%; inhibition in vivo at 10 mg/kg [23]: 7.2%; Activity [24]: Non-Toxic; Activity [25]: Non-Toxic; Activity [26]: Non-Toxic; Activity [27]: Non-Toxic; Activity [28]: Non-Toxic
